Literature values as cited in patent US7919499B2, “Naltrexone long acting formulations and methods of use” (Alkermes, Inc., priority 2004, dated 2011).
Read-outs that look alike come from different tables or passages of the source.

System: patients with alcohol dependence
Details: oral vs placebo; for Risk difference as % reduction, relapse to heavy drinking / Risk difference (95% CI), relapse to heavy drinking: Hopkins meta-analysis; for Risk difference (95% CI), relapse to heavy drinking: nine studies, fixed effects model
[1] = Bouza et al, short term studies (≦12 weeks), listed as Oral Naltrexone
[2] = Cochrane Review, 12 weeks, listed as Oral Naltrexone

In the case of `O=C1CC[C@@]2(O)[C@H]3Cc4ccc(O)c5c4[C@@]2(CCN3CC2CC2)[C@H]1O5` [oral naltrexone, naltrexone], the “Decrease of odds of relapsing to heavy drinking relative to placebo” value (Bouza et al, short term studies (≦12 weeks)) is given as 38%, the “Decrease of odds of relapsing to heavy drinking relative to placebo” value [1] is given as “(38% reduction)” and the “Odds ratio (95% CI), relapse to heavy drinking” value [1] is given as 0.62 (0.52, 0.75). The “Decrease of relapse rate relative to placebo” value (Cochrane Review, 12 weeks) was 36%, the “Decrease of relapse rate relative to placebo” value [2] was “(36% reduction)” and the “Relative risk (95% CI), relapse to heavy drinking” value [2] was 0.64 (0.51, 0.82). For the same compound, the “Risk difference as % reduction, relapse to heavy drinking” value was 13%, the “Risk difference (95% CI), relapse to heavy drinking” value was 0.13 and the “Risk difference (95% CI), relapse to heavy drinking” value (listed as Oral Naltrexone) was 0.13 (0.08, 0.17). The “Risk difference as % reduction, relapse to heavy drinking” value (listed as Oral Naltrexone) was “(13% reduction)”.
